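These data come from cells grown in 96-well plates and exposed to compound for 48 hours at five concentrations. The concentration for 50% growth inhibition is given as GI50. TGI: concentration producing complete growth inhibition.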

One experiment concerns DMS 114 small cell lung. In words: NCI anticancer screen, dose series, 48 h.
As to `COC(=O)C(CC(=O)c1cc2c(cc1I)OCO2)Cc1cc(OC)c(OC)c(OC)c1I` (stereo not given), the TGI is > 100 µM.

With `O=S(=O)(O)C(O)/C=C/c1ccccc1` (stereo not given), the TGI is > 100 µM.

As for `O=C(Nc1ccccc1[N+](=O)[O-])c1ccccc1`, the TGI is > 100 µM.

Regarding `COc1ccc(/C=C(/C(=O)O)c2cc(OC)c(OC)c(OC)c2)cc1`, the TGI is > 100 µM.

Consider `COc1cc2c(cc1O)[C@H](Cc1ccc(Oc3cc(C[C@H]4c5cc(OC)c(OC)cc5CCN4C)ccc3OC)cc1)NCC2`, for which the TGI was found to be 40.5 µM.

Regarding `OCc1c(-c2cccc3ccccc23)sc(-c2cccc3ccccc23)c1CO`, the TGI came to 22.8 µM.

With `O=C1Oc2cc3c(c4cccc1c24)OCN(c1ccc(Cl)cc1)C3`, the TGI is > 57.2 µM.

Regarding `O=C(N/N=C/c1cccc(O)c1O)N/N=C/c1cccc(O)c1O`, the TGI is > 100 µM.

For `COc1cc2c(cc1OC)C1C=NC(C(=O)O)(C2)c2ccccc21` (stereo not given), the TGI was > 100 µM.

Compound `C[Si](C)(C)c1ccc(CC2(Cc3ccc([Si](C)(C)C)cc3)CCNC2)cc1` came in with a TGI of 3.87 µM.

With `Cc1cc(C)nc(NS(=O)(=O)c2ccc(NC(=O)c3cccc4c(=O)c5ccccc5[nH]c34)cc2)n1`, the TGI was found to be 35.2 µM.

Take `CCCCCCCCCCCCCCC1OC(=O)c2ccccc21` (stereo not given): the TGI was 90.4 µM.

Take `CC(C)(C)C1=NC(S)NC(CCC(=O)Nc2ccccc2[N+](=O)[O-])=C1` (stereo not given): the TGI is > 100 µM.

For a further experiment, the system named is DMS 273 small cell lung. In words: NCI anticancer screen, dose series, 48 h.
`C1CN2N3CCCC23C1` (stereo not given): the TGI is > 100 µM.

As for `Cc1cccc(C(C)(C)C)c1NC(=O)C(=O)Cc1nc2ccccc2s1`, the TGI was > 100 µM.

On to `CC(=O)OCCc1cccnc1/C=N/O`, for which the TGI is > 100 µM.

Consider `CCC1CCC2CCCC(C)N12` (stereo not given), for which the TGI is > 100 µM.

As to `O=C1CC[C@H]2CNC(=O)C[C@H]2C1`, the TGI is > 100 µM.

With `C#CC(C)(C)Oc1cc(O)c2c(=O)c3ccccc3n(C)c2c1`, the TGI is > 100 µM.

In turn, `CN1CCCNCCN(CCc2ccccn2)CCCN(C)CC1` showed a TGI of 81.5 µM.

For the compound `C[C@]12CCC(=O)C=C1CC[C@@H]1C2CC[C@]2(C)NC(=O)C(C#N)CC12` (stereo not given in full), the TGI was > 100 µM.

With `COC(=O)c1c(OC)cccc1C(=O)O`, the TGI was > 100 µM.

Turning to `CC1=CCCC(OC(N)=O)C1` (stereo not given), the TGI was > 100 µM.

For `c1ccc(-c2nnc(-c3nn(-c4ccccc4)c4nc5ccccc5nc34)o2)cc1`, the TGI was > 100 µM.

`O=[N+]([O-])c1ccc(NSc2ccccc2)cc1` returned a TGI of 33.7 µM.

As to `COc1ccc(N=Cc2cc(OC)c(OC)c(OC)c2)cc1`, the GI50 was 33 µM and the TGI is > 100 µM.

For `Cc1c(C(=O)/C=C/c2cccc3ccccc23)[n+](=O)c2ccccc2n1[O-]`, the TGI was found to be 24.5 µM.

Compound `CC(=O)/C=C/c1cccc(N=S)c1` displayed a TGI of 20.9 µM.

Consider `COc1cc([C@@H]2c3cc4c(cc3[C@@H](NC(=O)c3cccc([N+](=O)[O-])c3)C3COC(=O)[C@@H]32)OCO4)cc(OC)c1O` (stereo not given in full), for which the TGI is > 100 µM.

In the case of `O=C1/C(=C/c2ccccc2)CN(C(=O)Oc2ccc(Cl)cc2)C/C1=C\c1ccccc1`, the TGI was 4.18 µM.

For `CC1=C[C@@H]2Cc3occc3C(C)(C)[C@@H]2CC1`, the TGI was 26.8 µM.

As to `O=C1NC(=O)C2C(=O)NC(=O)C1C2(c1ccccc1)c1ccc(Cl)cc1` (stereo not given), the TGI is > 100 µM.

Turning to `O=C(O)c1cc(S(=O)(=O)N=NC=C2c3ccccc3N(O)c3ccccc32)ccc1O`, the TGI turned out to be 34.6 µM.

As for `O=c1[nH]c(=O)n(C2CC(O)C(CO)O2)cc1C#Cc1c(F)c(F)c(F)c(F)c1F` (stereo not given), the TGI is > 100 µM.

As for `COC(=O)C(CC(=O)c1cc2c(cc1I)OCO2)Cc1cc(OC)c(OC)c(OC)c1I` (stereo not given), the TGI is > 100 µM.

With `C/C(=N\NC(N)=S)c1ccc(C)cc1C`, the TGI was > 100 µM.

Regarding `O=S(=O)(O)C(O)/C=C/c1ccccc1` (stereo not given), the TGI is > 100 µM.

Take `O=C(Nc1ccccc1[N+](=O)[O-])c1ccccc1`: the TGI is > 100 µM.

Turning to `COc1ccc(/C=C(/C(=O)O)c2cc(OC)c(OC)c(OC)c2)cc1`, the TGI was > 100 µM.

In the case of `COc1cc2c(cc1O)[C@H](Cc1ccc(Oc3cc(C[C@H]4c5cc(OC)c(OC)cc5CCN4C)ccc3OC)cc1)NCC2`, the TGI was 43.2 µM.

`OCc1c(-c2cccc3ccccc23)sc(-c2cccc3ccccc23)c1CO`: the TGI worked out at 28.5 µM.

On to `O=C1Oc2cc3c(c4cccc1c24)OCN(c1ccc(Cl)cc1)C3`, for which the TGI is > 100 µM.

For the compound `OCCNCO`, the TGI was > 100 µM.

Compound `O=C(N/N=C/c1cccc(O)c1O)N/N=C/c1cccc(O)c1O` had a TGI of 65.2 µM.

As for `COc1cc2c(cc1OC)C1C=NC(C(=O)O)(C2)c2ccccc21` (stereo not given), the TGI was > 100 µM.

In turn, `C[Si](C)(C)c1ccc(CC2(Cc3ccc([Si](C)(C)C)cc3)CCNC2)cc1` had a TGI of 3.42 µM.

On to `Cc1cc(C)nc(NS(=O)(=O)c2ccc(NC(=O)c3cccc4c(=O)c5ccccc5[nH]c34)cc2)n1`, for which the TGI came to 48.4 µM.

The test system of the next experiment is DU-145 prostate. In words: NCI anticancer screen, dose series, 48 h.
As to `O=C1CSC(N2CCN(c3cccc(Cl)c3)CC2)=N1`, the GI50 was > 100 µM and the TGI was > 100 µM.

On to `CCN1CCN(c2nc(NCCNc3ccnc4cc(Cl)ccc34)c3ccccc3n2)CC1`, for which the GI50 is 2.17 µM and the TGI was 9.14 µM.

Consider `COc1ccccc1NC(=O)c1ccc(/C=C/C(=O)c2nccn2C)cc1`, for which the GI50 is 0.504 µM and the TGI stood at 1.09 µM.

Regarding `Cn1cc(C2=C(c3ccc(OC[C@@H](O)CO)cc3)C(=O)NC2=O)c2ccccc21`, the GI50 was > 25 µM and the TGI was > 25 µM.

For `O=C1c2ccccc2-c2c1c1cc3c(cc1c(=O)n2CCCCl)OCO3`, the GI50 is > 100 µM and the TGI is > 100 µM.

A further experiment relates to HS 578T breast. In words: NCI anticancer screen, dose series, 48 h.
Take `O=C1CSC(N2CCN(c3cccc(Cl)c3)CC2)=N1`: the GI50 is > 100 µM and the TGI was > 100 µM.
